Source: ChEMBL document CHEMBL5356945, “Discovery of PFI-6, a small-molecule chemical probe for the YEATS domain of MLLT1 and MLLT3” (Bioorg Med Chem Lett, 2024)
Converted amounts (≈) assume the structure as drawn.

Experiments:
Protein ENL [1] = molecular target: T1, Protein ENL (Homo sapiens, UniProt Q03111); assay: Inhibition of MLLT1 YD domain (unknown origin) assessed as disruption of histone peptide binding using histone peptide as substrate by HTRF assay
T1 sequence (Q03111 whole entry): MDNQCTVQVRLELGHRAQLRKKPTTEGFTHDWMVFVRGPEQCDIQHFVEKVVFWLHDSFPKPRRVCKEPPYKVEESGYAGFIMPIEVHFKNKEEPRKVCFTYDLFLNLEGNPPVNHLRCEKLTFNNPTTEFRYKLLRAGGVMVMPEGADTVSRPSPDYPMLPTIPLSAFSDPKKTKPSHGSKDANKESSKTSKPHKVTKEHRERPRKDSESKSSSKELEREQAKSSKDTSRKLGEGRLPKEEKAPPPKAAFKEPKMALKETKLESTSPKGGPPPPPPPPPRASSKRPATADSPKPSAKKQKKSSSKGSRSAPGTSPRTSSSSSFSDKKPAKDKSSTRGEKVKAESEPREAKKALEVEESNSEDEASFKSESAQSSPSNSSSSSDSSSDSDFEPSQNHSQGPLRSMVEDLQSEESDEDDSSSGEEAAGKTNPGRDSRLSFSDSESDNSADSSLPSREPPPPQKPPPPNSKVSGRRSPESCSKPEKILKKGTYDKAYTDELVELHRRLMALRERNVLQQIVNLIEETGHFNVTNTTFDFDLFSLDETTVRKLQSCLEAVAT

Protein AF-9 [2] = molecular target: T2, Protein AF-9 (Homo sapiens, UniProt P42568); assay: Inhibition of MLLT3 YD domain (unknown origin) assessed as disruption of histone peptide binding using histone peptide as substrate by HTRF assay
T2 sequence (P42568 whole entry): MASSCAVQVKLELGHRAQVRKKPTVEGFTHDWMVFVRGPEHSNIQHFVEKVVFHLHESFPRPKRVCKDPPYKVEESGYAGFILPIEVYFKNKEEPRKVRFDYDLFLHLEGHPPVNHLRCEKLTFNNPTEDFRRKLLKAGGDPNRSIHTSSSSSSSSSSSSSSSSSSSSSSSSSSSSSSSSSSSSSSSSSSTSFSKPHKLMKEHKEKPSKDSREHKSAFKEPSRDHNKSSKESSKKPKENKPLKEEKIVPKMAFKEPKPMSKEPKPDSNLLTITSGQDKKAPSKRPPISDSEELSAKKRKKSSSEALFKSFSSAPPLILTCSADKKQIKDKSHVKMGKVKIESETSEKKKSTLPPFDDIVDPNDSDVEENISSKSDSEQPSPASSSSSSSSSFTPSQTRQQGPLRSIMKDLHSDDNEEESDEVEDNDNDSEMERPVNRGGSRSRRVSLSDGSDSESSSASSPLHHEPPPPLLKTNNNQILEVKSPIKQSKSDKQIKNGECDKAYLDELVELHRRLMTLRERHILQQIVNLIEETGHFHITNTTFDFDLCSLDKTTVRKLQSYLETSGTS

[3] = molecular target: T3, YEATS domain-containing protein 2 (Homo sapiens, UniProt Q9ULM3); assay: Inhibition of YEATS2 YD domain (unknown origin) assessed as disruption of histone peptide binding using histone peptide as substrate by HTRF assay
T3 sequence (Q9ULM3 whole entry): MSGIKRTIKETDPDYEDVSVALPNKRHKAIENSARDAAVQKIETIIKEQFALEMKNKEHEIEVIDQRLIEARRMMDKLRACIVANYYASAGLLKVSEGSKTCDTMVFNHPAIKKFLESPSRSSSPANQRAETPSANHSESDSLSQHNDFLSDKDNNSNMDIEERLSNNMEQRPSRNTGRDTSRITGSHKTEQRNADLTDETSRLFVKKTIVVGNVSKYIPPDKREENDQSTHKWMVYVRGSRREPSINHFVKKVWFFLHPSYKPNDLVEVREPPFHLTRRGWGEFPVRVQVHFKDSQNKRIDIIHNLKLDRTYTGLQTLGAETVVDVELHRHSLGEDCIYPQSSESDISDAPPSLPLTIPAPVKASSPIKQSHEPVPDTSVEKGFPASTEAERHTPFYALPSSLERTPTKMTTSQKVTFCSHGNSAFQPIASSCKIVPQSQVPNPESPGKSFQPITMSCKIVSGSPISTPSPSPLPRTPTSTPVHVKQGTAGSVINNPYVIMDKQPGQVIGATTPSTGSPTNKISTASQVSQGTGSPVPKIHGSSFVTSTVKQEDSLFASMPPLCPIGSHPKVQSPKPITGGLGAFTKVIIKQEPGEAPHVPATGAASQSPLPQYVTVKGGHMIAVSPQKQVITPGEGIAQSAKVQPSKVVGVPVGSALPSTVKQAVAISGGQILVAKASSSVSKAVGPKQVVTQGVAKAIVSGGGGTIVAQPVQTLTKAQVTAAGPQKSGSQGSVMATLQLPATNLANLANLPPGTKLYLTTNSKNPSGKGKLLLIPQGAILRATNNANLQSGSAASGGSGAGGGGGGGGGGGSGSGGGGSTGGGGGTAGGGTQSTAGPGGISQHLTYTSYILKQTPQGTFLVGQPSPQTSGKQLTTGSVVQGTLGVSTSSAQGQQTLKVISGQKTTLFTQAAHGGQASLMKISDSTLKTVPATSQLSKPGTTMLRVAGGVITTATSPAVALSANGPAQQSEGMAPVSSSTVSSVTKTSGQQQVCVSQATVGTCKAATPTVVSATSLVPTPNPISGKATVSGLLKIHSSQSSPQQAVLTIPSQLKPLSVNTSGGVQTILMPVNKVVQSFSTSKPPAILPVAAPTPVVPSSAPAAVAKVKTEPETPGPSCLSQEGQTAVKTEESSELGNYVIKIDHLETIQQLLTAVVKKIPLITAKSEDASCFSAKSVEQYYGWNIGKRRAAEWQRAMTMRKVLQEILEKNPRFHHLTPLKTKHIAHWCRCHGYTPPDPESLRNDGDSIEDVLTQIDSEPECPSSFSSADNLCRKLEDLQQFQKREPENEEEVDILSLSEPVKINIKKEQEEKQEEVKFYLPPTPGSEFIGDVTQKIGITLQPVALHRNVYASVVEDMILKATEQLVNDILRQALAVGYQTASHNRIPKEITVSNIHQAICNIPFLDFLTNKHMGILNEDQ

[4] = molecular target: T4, YEATS domain-containing protein 4 (Homo sapiens, UniProt O95619); assay: Inhibition of YEATS4 YD domain (unknown origin) assessed as disruption of histone peptide binding using histone peptide as substrate by HTRF assay
Protein AF-9 [5] = molecular target: T2, Protein AF-9; assay: Binding affinity to MLLT3 in human HEK293 cells by NanoBRET assay; type: cell-based
Protein ENL [6] = molecular target: T1, Protein ENL; assay: Inhibition of His-tagged MLLT1 YD domain (unknown origin) assessed as disruption of protein binding to histone peptide using biotinylated histone peptide as substrate by AlphaScreen assay
[7] = molecular target: T5, Protein ENL (Homo sapiens) (UniProt Q03111); assay: Inhibition of His-tagged MLLT1 YD domain (unknown origin) assessed as disruption of protein binding to histone peptide using biotinylated histone peptide as substrate at 100 uM by AlphaScreen assay
T5 sequence (whole entry): T1 sequence (Q03111 whole entry)

[8] = Cytotoxicity against human THLE cells assessed as decrease in cellular ATP by CellTiter-Glo assay; type: toxicity, cell-based
[9] = molecular target: Voltage-gated inwardly rectifying potassium channel KCNH2 (Homo sapiens, UniProt Q12809); assay: Inhibition of human ERG assessed as inhibition constant by patch-clamp assay; type: toxicity
[10] = molecular target: T6, YEATS domain-containing protein 2 (Homo sapiens) (UniProt Q9ULM3); assay: Binding affinity to YEATS2 YD domain (unknown origin) assessed as change in melting temperature by thermal shift assay
T6 sequence (whole entry): T3 sequence (Q9ULM3 whole entry)

[11] = Passive apparent permeability in dog MDCK cells; type: ADME, cell-based, Canis lupus familiaris
[12] = Metabolic stability in human hepatocytes assessed as apparent intrinsic clearance measured per million cells; type: ADME, cell-based, Hepatocyte
[13] = molecular target: T7, Protein AF-9 (Homo sapiens) (UniProt P42568)
T7 sequence (whole entry): T2 sequence (P42568 whole entry)
Description: Binding affinity to MLLT3 YD domain (unknown origin) assessed as change in melting temperature by thermal shift assay

[14] = molecular target: T4, YEATS domain-containing protein 4; assay: Binding affinity to YEATS4 YD domain (unknown origin) assessed as change in melting temperature by thermal shift assay
[15] = Lipophilicity, logD of the compound by shake flask method; type: physicochemical; conditions: octanol/water
[16] = Kinetic solubility of compound at pH 7.4; type: physicochemical; conditions: buffer, read-out: Kinetic_solubility
[17] = molecular target: T5, Protein ENL (Homo sapiens); assay: Binding affinity to MLLT1 YD domain (unknown origin) assessed as change in melting temperature by thermal shift assay

T4 sequence (O95619 whole entry, the tested form may be a part): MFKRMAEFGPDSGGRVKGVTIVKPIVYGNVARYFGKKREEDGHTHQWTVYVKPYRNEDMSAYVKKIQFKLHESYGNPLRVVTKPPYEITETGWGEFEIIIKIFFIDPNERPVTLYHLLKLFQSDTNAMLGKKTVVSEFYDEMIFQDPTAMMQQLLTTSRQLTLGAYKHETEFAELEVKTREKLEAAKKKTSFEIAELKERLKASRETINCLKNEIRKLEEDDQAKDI
Chain of Voltage-gated inwardly rectifying potassium channel KCNH2 (Q12809 whole entry, the tested form may be a part): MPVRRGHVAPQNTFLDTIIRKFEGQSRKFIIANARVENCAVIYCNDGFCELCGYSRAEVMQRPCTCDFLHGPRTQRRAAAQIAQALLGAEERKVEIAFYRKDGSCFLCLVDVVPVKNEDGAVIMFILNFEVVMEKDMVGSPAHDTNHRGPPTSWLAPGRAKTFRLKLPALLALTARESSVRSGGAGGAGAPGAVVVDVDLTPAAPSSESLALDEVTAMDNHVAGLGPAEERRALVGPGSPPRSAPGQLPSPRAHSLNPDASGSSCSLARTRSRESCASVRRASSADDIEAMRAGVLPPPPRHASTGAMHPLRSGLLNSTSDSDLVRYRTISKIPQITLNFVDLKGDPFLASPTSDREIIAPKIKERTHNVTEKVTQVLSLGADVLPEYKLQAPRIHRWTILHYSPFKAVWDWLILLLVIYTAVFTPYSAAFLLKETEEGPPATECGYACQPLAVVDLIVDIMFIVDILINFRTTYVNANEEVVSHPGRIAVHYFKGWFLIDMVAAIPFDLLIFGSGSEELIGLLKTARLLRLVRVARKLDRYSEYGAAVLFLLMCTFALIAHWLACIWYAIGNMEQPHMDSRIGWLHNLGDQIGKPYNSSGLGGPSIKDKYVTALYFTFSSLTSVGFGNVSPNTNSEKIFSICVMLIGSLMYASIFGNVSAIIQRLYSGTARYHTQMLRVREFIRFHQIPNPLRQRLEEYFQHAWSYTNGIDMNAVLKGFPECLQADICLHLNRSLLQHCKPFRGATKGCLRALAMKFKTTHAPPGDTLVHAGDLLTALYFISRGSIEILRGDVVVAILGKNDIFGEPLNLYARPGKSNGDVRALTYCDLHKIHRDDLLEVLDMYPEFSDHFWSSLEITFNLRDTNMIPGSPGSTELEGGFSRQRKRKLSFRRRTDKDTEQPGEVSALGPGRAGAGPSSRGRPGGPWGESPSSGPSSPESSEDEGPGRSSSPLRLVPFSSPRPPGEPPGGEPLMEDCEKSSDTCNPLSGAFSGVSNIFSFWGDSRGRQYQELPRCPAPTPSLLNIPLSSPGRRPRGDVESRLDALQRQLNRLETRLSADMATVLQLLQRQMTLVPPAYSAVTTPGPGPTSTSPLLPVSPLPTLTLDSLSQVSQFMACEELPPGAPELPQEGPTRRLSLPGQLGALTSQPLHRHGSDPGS

Structure (SMILES) | IC50 (Protein ENL [1]) | IC50 (Protein AF-9 [2]) | IC50 [3] | IC50 [4] | IC50 (Protein ENL [6]) | other results
O=C(NC1CCCC1)c1cc(-c2cc(O)c3cccnc3c2)on1 | 0.26 µM | 0.2 µM | > 30 µM | > 30 µM |  | 
CN(C)C(=O)c1ccc(-c2cc(C(=O)N(C)C3CCCC3)no2)cc1O | > 30 µM | > 30 µM | > 30 µM | > 30 µM |  | IC50 (Protein AF-9 [5]): > 30 µM
O=C(NC1CCCC1)c1cc(-c2cccc(O)c2)n[nH]1 | 2.5 µM | 3.4 µM | > 30 µM | > 30 µM |  | 
O=C(NCC1CC1)c1cc(-c2cccc(O)c2)on1 |  |  |  |  | 21.9 µM | 
O=C(NC1CCCC1)c1cc2cc(F)ccc2[nH]1 |  |  |  |  | 5.64 µM | 
CN(C)C(=O)c1ccc(-c2cc(C(=O)NC3CCCC3)no2)cc1O | 0.16 µM | 0.12 µM | > 30 µM | > 30 µM |  | 
O=C(NC1CCC1)c1cc(-c2cccc(O)c2)on1 |  |  |  |  | 1.14 µM | 
C/C=C/C(=O)NC1CCCC1 |  |  |  |  |  | inhibition [7]: 55%
O=C(NC1CCCC1)c1cc(-c2cccc(O)c2)on1 | 0.93 µM | 0.63 µM | > 30 µM | > 30 µM | 1.1 µM | 
O=C(NC1CC1)c1cc(-c2cccc(O)c2)on1 |  |  |  |  | 28.9 µM | 
O=C(NC1CCCC1)c1ccc2snnc2c1 |  |  |  |  | 3 µM | 
O=C(NC1CCCC1)c1cc(-c2ccc(O)cc2)on1 |  |  |  |  | 6.9 µM | 
CC(C)NC(=O)c1cc(-c2cccc(O)c2)on1 |  |  |  |  | 9.13 µM | 
O=C(NC1CCCC1)c1cc(-c2ccc(Cl)c(O)c2)on1 | 0.75 µM | 0.5 µM | > 30 µM | > 5.8 µM |  | 
O=C(NC1CCCC1)c1cn(-c2cccc(O)c2)cn1 | 0.97 µM | 0.5 µM | > 26 µM | > 30 µM |  | 
CN(C(=O)c1cc(-c2cccc(O)c2)on1)C1CCCC1 |  |  |  |  | > 30 µM | 
O=C(NC1CCCC1)c1cnn(-c2cccc(O)c2)c1 | 3.4 µM | 2.4 µM | > 30 µM | > 30 µM |  | 
O=C(NC1CCCC1)c1cc(-c2cccc(O)c2Cl)on1 | > 30 µM | > 30 µM | > 30 µM | > 30 µM |  | 
CN(C)C(=O)c1ccc(-c2cc(C(=O)N[C@@H]3CCc4ccccc43)no2)cc1O |  |  | > 30 µM | > 30 µM |  | IC50 [8]: > 100 µM; Ki [9]: > 100 µM; ΔTm [10]: 0 °C; Papp [11]: 27 ×10⁻⁶ cm/s; CLH(app) [12]: 43 µL/min; ΔTm [13]: 5.13 °C; ΔTm [14]: -0.02 °C; logD [15]: 3.3; solubility kinetic [16]: 3000 µM (≈ 1170 µg/mL); ΔTm [17]: 3.61 °C
C[C@H]1CCCN1Cc1nc2cc(NC(=O)c3ccc4c(cnn4C)c3)ccc2[nH]1 |  |  |  |  |  | IC50 (Protein AF-9 [5]): 0.6 µM
